Set-up: species or system Yucatan pigs
Conditions: pig, in vivo
Text: Poly(lactic-co-glycolic acid) (PLGA) implants comprising bimatoprost were implanted into the eyes of 3 month old Yucatan pigs (6 pigs total). Prior to delivering the implant to either the sclera (fully intrascleral; “intrascleral arm”) or partially in the limbus (one end residing in the limbus, one end residing in the sclera; “limbal arm”), the pigs were placed under general anesthesia, and a lid speculum was inserted. Intraocular pressure was checked, and corneal thickness was checked in 4 quadrants, and centrally, using ultrasonic corneal pachymetry. The lid speculum was then removed.
In each of the 6 pigs, the right eye received one implant, and the left eye received 2 implants. In order to accomplish this, betadine drops were placed onto the left eyes of each pig and an eyelid speculum is inserted. A surgical operating microscope was positioned to visualize the implantation. Each eye was infraducted with a traction suture. A small conjunctival peritomy was created, and the sclera was marked with gentian violet-tipped calipers 2 mm posterior to the limbus. 10-0 nylon marking sutures were then placed 3-4 mm posterior to the limbus. A 27 G needle on a TB syringe was used to preform a tunnel for implantation toward the anterior chamber (group 1) or across the sclera (group 2). The implant was then deployed into the preformed tunnel, and the traction suture was released. Polymyxin-trimethoprim and tobramycin-dexamethasone drops were then placed in each eye, and the speculum was removed. The procedure was then repeated with two implants in each pig's […] eye.
At month 1, the pigs were examined, and one pig from each group was euthanized and the eyes were removed and placed in formalin for pathology. Aqueous samples from each of the 6 pigs were collected and analyzed for the presence of bimatoprost and Bimatoprost Acid (a metabolite of bimatoprost). At weeks 3, 10, and 20, the remaining pigs in each group were examined for redness, inflammation, eye rubbing, miosis, and squinting, as above.
At month 3, the remaining pigs were examined and aqueous samples collected (as above), and one of the remaining pigs from each group was euthanized (as above) for pathology.
The histopathology of the eyes is evaluated, as is the concentration of bimatoprost, and metabolites thereof, in the anterior chambers. The concentrations of bimatoprost and the bimatoprost acid metabolite in the anterior chamber of each pig's eyes are shown in FIGS. 24A-24D, at the time points described above. FIG. 24A and FIG. 24B show the concentrations of bimatoprost and the bimatoprost acid metabolite, respectively, for the three pigs (A1, A2, and A6) implanted with the intrascleral implant. […]

Compound | bimatoprost aqueous levels, limbal arm compared to intrascleral arm | presence of bimatoprost in the aqueous humor | Bimatoprost Acid concentration, limbal arm compared to intrascleral arm | presence of Bimatoprost Acid (metabolite of bimatoprost) in aqueous samples
CCNC(=O)CCC/C=C\C[C@@H]1[C@@H](/C=C/[C@@H](O)CCc2ccccc2)[C@H](O)C[C@@H]1O [bimatoprost] | both higher and more sustained aqueous levels in the limbal arm | detectable | – | –
O=C(O)CCC/C=C\C[C@@H]1[C@@H](/C=C/[C@@H](O)CCc2ccccc2)[C@H](O)C[C@@H]1O [Bimatoprost Acid] | – | – | higher concentration in the limbal arm | detectable

Reference: patent US12589025B2, “Intraocular devices, systems, and methods” (Sight Sciences, Inc., priority 2021, dated 2026)
